The values below come from patent US20250340510A1, “Substituted Phenylbenzenesulfonamide Derivatives and Uses Thereof” (Nine Square Therapeutics Corporation, priority 2022, published 2025).

In one assay the test system is TFEB. The experiment in a line: TFEB translocation assay in HeLa cells (nuclear to cytoplasmic TFEB ratio, high-content imaging). It is filed as cell-based. Conditions: Homo sapiens, 1.5 h, 90 mins incubation at 37° C., ratio of nuclear to cytoplasmic TFEB. Here is the method: Example B2. TFEB Translocation Assay
Rabbit TFEB antibody, Cell Signaling Technology #4240S
PFA 16% MeOH-free, Election Microscopy Sciences #50-980-487
HCS CellMask Deep Red, ThermoFisher Scientific #H32721
Plates: Perkin Elmer Phenoplate #605730 black optically clear, tissue culture treated 384-well plate
Example B2.2 Method, Day 1: Cells Seeded in 384WP
Cells were seeded in the afternoon. The outer one row of the plate was not used to avoid outer well edge effects.
HeLa cells were detached using trypsin, and the cells were counted using a cell counter.
4000 HeLa cells were seeded per well in […] growth media (DMEM with 10% FBS, 1 mM sodium pyruvate and Pen-Strep).
Example B2.3 Method, Day 2: Assay with TRPML1 Compounds+Staining
Compounds were added to cells using a Tecan D300e dispenser.
Cells were incubated for 90 mins at 37° C. with the compounds (compound range: 80 nM-[…] (2× step dilution—8 dilution steps, 3 replicates per condition)
The cells were fixed by adding 16.5 μL of 16% PFA (4% final) and incubating for 15 min at room temperature.
The cells were washed with 3× in PBS-TX (PBS+0.1% Triton X-100)−1×100 μL followed by 2×50 μL.
The cells were blocked and permeabilized in 30 μL of blocking buffer (PBS-TX+5% goat serum) for 1 h.
The cells were incubated with TFEB antibody (1:200, CST 4240S) in 30 μL blocking buffer overnight at 4° C. The plates were kept damp to avoid evaporation.
Example B2.4 Method, Day 3: Staining+Imaging
The cells were washed 3× in PBS-TX—3×100 μL with a Biotek EL406 washer.
The cells were incubated with Goat anti-Rb Alexa-Fluor 488 (1:2000), cell mask (1:10,000) and Hoechst (1:10,000) in 30 μL blocking buffer for 1 h at room temperature. The solution was dispensed using a 5 μL peristaltic cassette (EL406).
The cells were washed 3× in PBS-TX—3×100 μL with a EL406 washer, then […] PBS was dispensed using a 5 μL peristaltic cassette (EL406).
The cells were imaged on an Operetta CLS High-content imaging system using a 20× water immersion objective (NA 1.0) the same day.
Image analysis was performed using Harmony V4.9 (Perkin Elmer). Briefly, nuclei were segmented from background-corrected images using Hoechst intensity, and cell body segmented using HCS CellMask DeepRed. A sliding parabola filter was applied to the AlexaFluor 488 channel (TFEB), before sum pixel intensity in the nuclear and cytoplasmic regions was calculated. A ratio of nuclear to cytoplasmic TFEB was used to define TFEB translocation from the cytosolic to nuclear compartment. The EC50 values derived by fitting the data to a sigmoidal dose response curve using Prism 9 (Graphpad).

A further assay has as its target TRPML1 (Homo sapiens, UniProt Q9GZU1). The assay can be described thus: Calcium flux in HEK293 overexpressing TRPML1 plasma membrane variant (FLIPR, Calcium 6 dye). The class given is cell-based. Conditions: HEK293/TRPML1-PM clone A5 cells; 4-parameter logistic fit; read-out: TRPML1 calcium flux (FLIPR) dose response: EC50. An excerpt:
Example B1. Calcium Flux in HEK293 Overexpressing TRPML1 Plasma Membrane Variant—Calcium 6 Dye
Cells: HEK293/TRPML1-PM clone A5, clonal cell line containing mutant TRPML1 (both N- and C-terminal dileucine targeting motifs deleted) that localizes to the plasma membrane
Plates: Perkin Elmer Viewplate cat. #6007460, black optically clear, tissue culture treated 384-well plate
Calcium dye: Molecular Devices FLIPR Calcium 6 Assay Kit, cat. #R8190 or Fluo-4 Direct from Thermo Fisher, cat. #F10471
Tips: Molecular Devices 384-well FLIPR Tetra black tips, cat. #9000-0764 Example B1.2 Method
HEK293/TRPML1-PM clone A5 cells were trypsinized from flasks, counted, then diluted in media to 15,000 cells per 25 μL, and seeded into a black, 384-well viewplate, and cultured overnight.
One vial of calcium 6 dye was diluted with 10 mL of assay buffer (HBSS+20 mM HEPES pH 7.4) and 25 μL of the dilution was added per well to the cells.
After incubating for 2 hours at 37° C., the plate was moved to the FLIPR in the read position.
The compounds were diluted in EMEM with 0.125% FBS to 5× concentration and loaded in a 384-well plate according to the desired plate map for the assay, including DMSO alone and carbachol controls, then the plate was moved to the FLIPR in the source 2 position.
A box of tips was placed in the source 1 position within the FLIPR to complete the assay set up.
Once the run was started, an initial baseline fluorescent measurement was performed for 10 seconds (470-495 nm excitation and 515-575 nm emission) prior to adding the compounds.
12.5 μL of 5× test compound, DMSO alone, or carbachol were added via the FLIPR and real-time fluorescence measurements were performed for an additional 170 seconds with 1 read per second.
The data was normalized to baseline by calculating maximum fluorescence minus minimum fluorescence and plotted as response (fold) over the baseline versus log ([…] concentration). The EC50 was determined using a 4-parameter logistic curve fit in Graphpad Prism 9.

Structures are written as SMILES.

As a reminder, the EC50 is the midpoint of the concentration-response curve.

TRPML1, sequence (Q9GZU1 17-572 limits assumed): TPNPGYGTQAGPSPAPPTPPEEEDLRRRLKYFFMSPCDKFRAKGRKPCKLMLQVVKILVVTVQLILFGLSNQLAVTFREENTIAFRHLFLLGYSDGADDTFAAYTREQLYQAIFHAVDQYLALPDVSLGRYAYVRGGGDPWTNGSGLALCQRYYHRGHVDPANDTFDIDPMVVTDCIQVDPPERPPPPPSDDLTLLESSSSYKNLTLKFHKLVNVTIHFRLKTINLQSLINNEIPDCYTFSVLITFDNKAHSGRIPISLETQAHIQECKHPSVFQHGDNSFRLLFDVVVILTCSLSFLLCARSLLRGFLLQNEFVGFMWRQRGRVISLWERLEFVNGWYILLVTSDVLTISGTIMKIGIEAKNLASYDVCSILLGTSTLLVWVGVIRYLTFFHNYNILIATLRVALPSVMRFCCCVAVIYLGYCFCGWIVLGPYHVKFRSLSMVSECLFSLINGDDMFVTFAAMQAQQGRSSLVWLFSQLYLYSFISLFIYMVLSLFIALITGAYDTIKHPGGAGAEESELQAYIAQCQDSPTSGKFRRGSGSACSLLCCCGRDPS

In the case of `CC(C)CCN(C)c1ccccc1NS(=O)(=O)c1ccc(S(=O)(=O)N(C)C)cc1` [Compound 6, N1-(2-(isopentyl(methyl)amino)phenyl)-N4,N4-dimethylbenzene-1,4-disulfonamide], the EC50 in the assay with TFEB (HeLa) stood at 4860 nM; at TRPML1, 290 nM.

Regarding `CN(CC1(C)CCOCC1)c1ccccc1NS(=O)(=O)c1ccc(S(=O)(=O)N(C)C)cc1` [Compound 10, N1,N1-dimethyl-N4-(2-(methyl((4-methyltetrahydro-2H-pyran-4-yl)methyl)amino)phenyl)benzene-1,4-disulfonamide], the EC50 with TFEB (HeLa) was determined as 2340 nM; on TRPML1, 870 nM.

In the case of `CN(c1c(F)cccc1NS(=O)(=O)c1ccc(S(=O)(=O)N(C)C)cc1)C1CCCCC1` [Compound 12, N1-(2-(cyclohexyl(methyl)amino)-3-fluorophenyl)-N4,N4-dimethylbenzene-1,4-disulfonamide], the EC50 with TFEB (HeLa) was less than 80 nM; on TRPML1, 720 nM.

As to `CN(Cc1ccsc1)c1ccccc1NS(=O)(=O)c1ccc(S(=O)(=O)N(C)C)cc1` [Compound 13, N1,N1-dimethyl-N4-(2-(methyl(thiophen-3-ylmethyl)amino)phenyl)benzene-1,4-disulfonamide], the figures for the EC50 in the assay with TFEB (HeLa) and at TRPML1 were 1350 nM and 670 nM, respectively.

On to `CN(CC1CC1)c1ccccc1NS(=O)(=O)c1ccc(S(=O)(=O)N(C)C)cc1` [Compound 14, N1-(2-((cyclopropylmethyl) (methyl)amino)phenyl)-N4,N4-dimethylbenzene-1,4-disulfonamide], for which the EC50 with TFEB (HeLa) is 2030 nM; on TRPML1, 1560 nM.

For `CN(c1ccccc1NS(=O)(=O)c1ccc(S(=O)(=O)N(C)C)cc1)C1(C)CCCCC1` [Compound 17, N1,N1-dimethyl-N4-(2-(methyl(1-methylcyclohexyl)amino)phenyl)benzene-1,4-disulfonamide], the EC50 was determined as 450 nM with TFEB (HeLa) and 190 nM at TRPML1.

For `CN(c1ccccc1NS(=O)(=O)c1ccc(S(=O)(=O)N(C)C)cc1)C1CCOC1` (stereo not shown) [Compound 18, N1,N1-dimethyl-N4-(2-(methyl(tetrahydrofuran-3-yl)amino)phenyl)benzene-1,4-disulfonamide], the figures for the EC50 in the assay with TFEB (HeLa) and on TRPML1 were more than 9900 nM and 1140 nM, respectively.

With `CN(c1ccccc1NS(=O)(=O)c1ccc(S(=O)(=O)N(C)C)cc1)C1CCC(C)(C)C1` (stereo not shown) [Compound 20, N1-(2-((3,3-dimethylcyclopentyl)(methyl)amino)phenyl)-N4,N4-dimethylbenzene-1,4-disulfonamide], the values for the EC50 with TFEB (HeLa) and on TRPML1 were 270 nM and 260 nM, respectively.

With `CN(CC1CCCCC1)c1ccccc1NS(=O)(=O)c1ccc(S(=O)(=O)N(C)C)cc1` [Compound 23, N1-(2-((cyclohexylmethyl)(methyl)amino)phenyl)-N4,N4-dimethylbenzene-1,4-disulfonamide], the EC50 in the assay with TFEB (HeLa) came to 200 nM; on TRPML1, 410 nM.

For `CN(c1ccccc1NS(=O)(=O)c1ccc(S(=O)(=O)N(C)C)cc1)C1CCCC1` [Compound 24, N1-(2-(cyclopentyl(methyl)amino)phenyl)-N4,N4-dimethylbenzene-1,4-disulfonamide], the 50% effective concentration (EC50) in the assay on TFEB (HeLa) worked out at 1870 nM; at TRPML1 it was 280 nM.

In the case of `CN(CC1CCCC1)c1ccccc1NS(=O)(=O)c1ccc(S(=O)(=O)N(C)C)cc1` [Compound 25, N1-(2-((cyclopentylmethyl)(methyl)amino)phenyl)-N4,N4-dimethylbenzene-1,4-disulfonamide], the EC50 in the assay on TFEB (HeLa) is 540 nM; at TRPML1 it was 420 nM.

Consider `CN(Cc1ccccc1)c1ccccc1NS(=O)(=O)c1ccc(S(=O)(=O)N(C)C)cc1` [Compound 26, N1-(2-(benzyl(methyl)amino)phenyl)-N4,N4-dimethylbenzene-1,4-disulfonamide], for which the EC50 with TFEB (HeLa) stood at 830 nM; at TRPML1 it was 300 nM.

As for `CN(C)S(=O)(=O)c1ccc(S(=O)(=O)Nc2ccccc2N(C)[C@H]2CC[C@H](C)CC2)cc1` [Compound 28, N1,N1-dimethyl-N4-(2-(methyl((1r,4r)-4-methylcyclohexyl)amino)phenyl)benzene-1,4-disulfonamide], the EC50 came to 1100 nM with TFEB (HeLa) and 350 nM at TRPML1.

`CN(c1ccccc1NS(=O)(=O)c1ccc(S(=O)(=O)N(C)C)cc1)C1CCC(C)(C)CC1` [Compound 29, N1-(2-((4,4-dimethylcyclohexyl)(methyl)amino)phenyl)-N4,N4-dimethylbenzene-1,4-disulfonamide]: the EC50 in the assay with TFEB (HeLa) worked out at 2270 nM; on TRPML1, 510 nM.

Regarding `CN(C)S(=O)(=O)c1ccc(S(=O)(=O)Nc2ccccc2N(C)[C@H]2CC[C@@H](C)CC2)cc1` [Compound 30, N1,N1-dimethyl-N4-(2-(methyl((1s,4s)-4-methylcyclohexyl)amino)phenyl)benzene-1,4-disulfonamide], the values for the EC50 in the assay on TFEB (HeLa) and on TRPML1 were 1170 nM and 360 nM, respectively.

Regarding `CN(CC1(C)COC1)c1ccccc1NS(=O)(=O)c1ccc(S(=O)(=O)N(C)C)cc1` [Compound 49, N1,N1-dimethyl-N4-(2-(methyl((3-methyloxetan-3-yl)methyl)amino)phenyl)benzene-1,4-disulfonamide], the EC50 in the assay on TFEB was determined as 7970 nM; at TRPML1, 1140 nM.

As for `CN(c1c(NS(=O)(=O)c2ccc(S(=O)(=O)N(C)C)cc2)cccc1C(F)(F)F)C1CCCCC1` [Compound 109, N1-(2-(cyclohexyl(methyl)amino)-3-(trifluoromethyl)phenyl)-N4,N4-dimethylbenzene-1,4-disulfonamide], the EC50 at TRPML1 was 280 nM.

With `CN(CC1CCOC1)c1ccccc1NS(=O)(=O)c1ccc(S(=O)(=O)N(C)C)cc1` (stereo not shown) [Compound 112, N1,N1-dimethyl-N4-(2-(methyl((tetrahydrofuran-3-yl)methyl)amino)phenyl)benzene-1,4-disulfonamide], the EC50 on TRPML1 was found to be 3720 nM.

On to `CCOCCCN(C)c1ccccc1NS(=O)(=O)c1ccc(S(=O)(=O)N(C)C)cc1` [Compound 113, N1-(2-((3-ethoxypropyl)(methyl)amino)phenyl)-N4,N4-dimethylbenzene-1,4-disulfonamide], for which, at TRPML1, the EC50 was more than 10000 nM.

For `CN(CCC1CCOCC1)c1ccccc1NS(=O)(=O)c1ccc(S(=O)(=O)N(C)C)cc1` [Compound 114, N1,N1-dimethyl-N4-(2-(methyl(2-(tetrahydro-2H-pyran-4-yl)ethyl)amino)phenyl)benzene-1,4-disulfonamide], the EC50 on TRPML1 came to 4020 nM.

As for `CN(c1cc(C(F)(F)F)ccc1NS(=O)(=O)c1ccc(S(=O)(=O)N(C)C)cc1)C1CCCCC1` [Compound 116, N1-(2-(cyclohexyl(methyl)amino)-4-(trifluoromethyl)phenyl)-N4,N4-dimethylbenzene-1,4-disulfonamide], the EC50 on TRPML1 amounted to 1030 nM.
